Read-outs that look alike come from different tables or passages of the source.
Columns and labels:
[1] = target: T1, CYP2A6 (Homo sapiens, UniProt P11509); assay: CYP cocktail inhibition assay in pooled HLMs, CYP2A6; conditions: substrate cocktail
T1 sequence (P11509 1-494): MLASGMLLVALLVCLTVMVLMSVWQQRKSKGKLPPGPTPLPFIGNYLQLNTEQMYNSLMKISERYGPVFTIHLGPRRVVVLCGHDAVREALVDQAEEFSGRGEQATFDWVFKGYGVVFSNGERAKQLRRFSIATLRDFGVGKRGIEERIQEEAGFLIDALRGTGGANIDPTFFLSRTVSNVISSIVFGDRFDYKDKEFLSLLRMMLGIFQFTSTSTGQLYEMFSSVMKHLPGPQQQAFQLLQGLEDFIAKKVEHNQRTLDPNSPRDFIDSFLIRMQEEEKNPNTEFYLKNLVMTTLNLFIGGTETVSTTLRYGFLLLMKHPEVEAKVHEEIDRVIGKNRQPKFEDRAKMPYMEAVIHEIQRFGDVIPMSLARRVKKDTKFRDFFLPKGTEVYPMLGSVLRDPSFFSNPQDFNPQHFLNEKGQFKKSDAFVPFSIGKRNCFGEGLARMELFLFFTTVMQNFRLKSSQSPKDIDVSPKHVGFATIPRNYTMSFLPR
Method: The drug–drug interaction potential was evaluated using a CYP cocktail assay that involved microsomal incubation and NADPH, as described elsewhere ([Lee et al., 2012]). […] The first reactions were initiated by NADPH addition, and each mixture was incubated in a shaking water bath at 37°C for 30 min. The final incubation was performed for 10 min with a total volume of 200 µL by adding substrates (tolbutamide (set B) as a CYP2C9 selective substrate, midazolam (set A) and testosterone (set B) as CYP3A4 selective substrates) and NADPH. The reaction was stopped and quenched by adding 200 µL of ice-cold acetonitrile containing 50 nM CBZ as internal standard, then centrifuged at 3,000 x g for 20 min. The supernatants were injected in LC-QTOF system. IC50 shift values were calculated as the ratio of the IC50 value obtained after pre-incubation without NADPH divided by the IC50 value obtained after 30 min incubation with NADPH.
The LC-QTOF system consisted of an Exion AD LC device (AB Sciex, Framingham, MA, United States) and a TripleTOF 6,600 + system (AB Sciex) equipped with an IonDrive Turbo V source operated in positive TOF information-dependent acquisition (IDA) MS2 scan mode. The TOF scan dwell time was 50 ms, and the 20 × IDA MS2 scan time was acquired with a 30-ms dwell time. […]

[2] = system: other CYP isoforms (CYP1A2, 2A6, 2B6, 2C8, 2C9, 2E1); assay: Reaction phenotyping with other recombinant CYP isoforms; type: in vitro ADME, human; conditions: 1 µM, 50 pmol/mL of each other recombinant CYP isoform, NADPH, 60 min
Method: Reactions were conducted in triplicate using 0.1 M PPB (pH 7.4) in eight-well tube strips in an 8 × 12 rack. […] The mixture was pre-incubated at 37°C with shaking at approximately 100 rpm for 5 min. Reactions were initiated by the addition of the NADPH-regenerating system and quenched with 200 µL ice-cold acetonitrile containing 50 nM CBZ. The samples were centrifuged at 1,000 × g and 4°C for 20 min, and the supernatants were subjected to LC-QTOF HRMS. […] The reaction was incubated, initiated, terminated, centrifuged then analyzed using the same method described above.
Reaction phenotyping is the identification of isoforms involved in drug metabolism and is important for the decipherment of drug biotransformation pathways and understanding of possible drug-drug interactions. M6, M7, and M8 were also detected in recombinant CYP incubations.

[3] = Metabolic stability and metabolite formation in pooled human liver microsomes with NADPH and/or UDPGA; type: in vitro ADME; conditions: for Concentration remaining, % of the initial concentration: 1 µM, HLMs; for Hepatic clearance CLh / CLint scaled at 1 µM: in vitro-in vivo extrapolation, well-stirred model; for half-life at 1 µM / microsomal CLint at 1 µM / CLint scaled at 1 µM: human, microsomes; for half-life at 1 µM: pH 7.4, 1 µM compound, read-out: Half-life; for microsomal CLint at 1 µM: read-out: Intrinsic clearance (in vitro) Clint; for CLint scaled at 1 µM: read-out: Intrinsic clearance (in vivo) CLint
Method: Microsomal incubation was conducted in triplicate using 0.1 M potassium phosphate buffer (PPB, pH 7.4) in eight-well tube strips in an 8 × 12 rack (1.2 mL; VWR, Emeryville, CA, United States). […] The mixture was pre-incubated at 37°C with shaking at approximately 100 rpm for 5 min. UGT glucuronidation was performed with HLMs (1 mg/mL) and alamethicin (25 μg/mg microsomal protein) in a 100-mM PPB (pH 7.4) solution on ice for 15 min. […] CYP, UGT, and combined reactions were initiated by addition of the NADPH regenerating system, UDPGA (1 mM), and both, respectively. […] The incubation mixtures were then centrifuged at 2,000 × g and 4°C for 20 min, and the supernatants were analyzed by LC-QTOF HRMS.
The incubation mixtures were pre-incubated at 37°C in a shaking water bath at approximately 100 rpm for 5 min. Reactions were initiated by the addition of an NADPH-regenerating system. The reaction was terminated, centrifuged then analyzed using the same method described above.
In the microsomal stability analysis, degradation half-life (t½) values were calculated using the following equation: t½=0.693/k where k is the first-order degradation rate constant, estimated by one-phase exponential-decay non-linear regression of the degradation time-course data using Graph Pad Prism 8.0 (Graph Pad Software Inc., San Diego, CA, United States). In vitro metabolic stability parameters, microsomal intrinsic clearance (CLint,mic), apparent intrinsic clearance (CL′int), and hepatic clearance (CLh), were calculated according to the well-stirred model approach ([Pang and Rowland, 1977]; [Baranczewski et al., 2006]). The apparent kinetic parameters of GRL0617 metabolism were determined by fitting a one-enzyme Michaelis-Menten equation. […] All data are presented as mean ± SD. Data were compared between groups using the unpaired Student’s t-test. The significance level was set at p < 0.05, unless indicated otherwise.

Cc1ccc(N)cc1C(=O)N[C@H](C)c1cccc2ccccc12 [GRL0617, 5-amino-2-methyl-N-[(1R)-1-(1-naphthalenyl)ethyl]benzamide]
Concentrations at which CYP2A6 was inhibited [1]: ≥ 50 µM
Reduction of GRL0617 level [2]: < 10%
Half-life ([3]; 1 µM compound, 1 mg/mL pooled HLMs with NADPH (phase I)): 26.4 min
Concentration remaining, % of the initial concentration ([3]; 60 min incubation with NADPH): 44.5% ± 5.3%
Concentration remaining, % of the initial concentration ([3]; 60 min incubation with NADPH + UDPGA): 47.2% ± 7.5%
Concentration remaining, % of the initial concentration ([3]; 60 min incubation with UDPGA): 93.4% ± 6.1%
Direct UGT glucuronidation ([3]; HLM with UDPGA only): No direct UGT glucuronidation was detected
Hepatic clearance CLh ([3]; NADPH + UDPGA): 11.1 mL/min/kg
Hepatic clearance CLh ([3]; NADPH): 11.7 mL/min/kg
half-life at 1 µM ([3]; 1 mg/mL pooled HLMs with NADPH (phase I)): < 30 min
half-life at 1 µM ([3]; 1 mg/mL pooled HLMs with NADPH + UDPGA (phase I + II)): 29.5 min
microsomal CLint at 1 µM ([3]; pH 7.4, HLMs with NADPH + UDPGA): 23.5 µL/min/mg
microsomal CLint at 1 µM ([3]; pH 7.4, HLMs with NADPH): 26.3 µL/min/mg
CLint scaled at 1 µM ([3]; pH 7.4, NADPH + UDPGA): 24.1 mL/min/kg
CLint scaled at 1 µM ([3]; pH 7.4, NADPH): 27 mL/min/kg

Reference: publication PMC9975351 (Frontiers in Pharmacology, 2023)
